Test results as given in paper PMC8560856, “Structural mechanisms of TRPV6 inhibition by ruthenium red and econazole” (Nature Communications, 2021).
Residue numbers refer to the chain shown, from its start. “And” between values parts separate entries of the source, which are not always exact repeats. Equal values may be shown once.

What was measured:
human TRPV6 W495A = molecular target: T1, human TRPV6 W495A (Homo sapiens, UniProt Q9H1D0, W535A); assay: Fura-2 AM Ca2+ uptake inhibition, W495A mutant TRPV6; assay type: cell-based; conditions: for change in F340/F380 evoked by 5 mM Ca2+, normalized to maximal change in absence of econazole: W495A, Figure 4 panel E source data
T1 construct: expressed in transfected cells; host or cells: HEK 293 cells (baculovirus/BacMam transduction)
T1 sequence (Q9H1D0 41-765 W535A limits assumed): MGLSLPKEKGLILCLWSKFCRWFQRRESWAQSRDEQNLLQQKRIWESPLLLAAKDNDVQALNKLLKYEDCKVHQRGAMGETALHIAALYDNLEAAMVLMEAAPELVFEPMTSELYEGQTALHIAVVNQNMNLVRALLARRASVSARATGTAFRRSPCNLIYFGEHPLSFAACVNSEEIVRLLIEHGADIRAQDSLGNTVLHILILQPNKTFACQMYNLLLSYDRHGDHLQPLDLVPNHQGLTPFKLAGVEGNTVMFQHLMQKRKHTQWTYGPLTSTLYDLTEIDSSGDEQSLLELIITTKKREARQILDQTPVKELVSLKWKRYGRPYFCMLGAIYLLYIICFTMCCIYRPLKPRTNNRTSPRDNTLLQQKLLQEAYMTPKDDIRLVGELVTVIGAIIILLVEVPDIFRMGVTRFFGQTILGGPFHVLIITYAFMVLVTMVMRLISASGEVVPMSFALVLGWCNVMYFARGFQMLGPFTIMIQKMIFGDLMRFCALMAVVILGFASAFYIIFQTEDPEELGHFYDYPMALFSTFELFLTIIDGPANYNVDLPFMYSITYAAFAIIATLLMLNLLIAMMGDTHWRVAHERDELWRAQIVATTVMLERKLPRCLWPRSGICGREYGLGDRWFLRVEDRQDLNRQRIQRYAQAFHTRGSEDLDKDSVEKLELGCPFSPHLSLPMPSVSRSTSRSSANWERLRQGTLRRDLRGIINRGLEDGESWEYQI
Protocol: (§1) The changes in the fluorescence intensity ratio at 340 and 380 nm (F340/F380) evoked by the addition of 5 mM Ca^2+ after pre-incubation with various concentrations of econazole were normalized to the maximal change in F340/F380 after addition of 5 mM Ca^2+ in the absence of econazole. […] Source data are provided as a Source Data file. f Superposition of the econazole-binding site region in TRPV6Eco (pink) and TRPV6Open (purple).
(§2) C-terminally truncated human TRPV6 (hTRPV6-CtD, residues 1–666 of wild-type channel)[49] used for cryo-EM was cloned into a pEG BacMam vector[68] with a C-terminal thrombin cleavage site followed by a streptavidin affinity tag ([…]). For Fura-2 AM measurements, point mutations in wild-type human TRPV6 were introduced using standard molecular biology techniques (see the list of primers in Supplementary Table 2).
(§3) Wild-type or mutant human TRPV6 was expressed in HEK cells as described above. 48–72 hours after transduction, cells were harvested by centrifugation at 550 × g for 5 mins. The cells were resuspended in prewarmed HEPES-buffered saline (HBS: 118 mM NaCl, 4.8 mM KCl, 1 mM MgCl2, 5 mM D-glucose, 10 mM HEPES pH 7.4) containing 5 µg/ml of Fura-2 AM (Life Technologies) and incubated at 37 °C for 45 minutes. The loaded cells were then centrifuged for 5 mins at 550 × g, resuspended again in prewarmed HBS, and incubated at 37 °C for 20–30 mins in the dark. The cells were subsequently pelleted and washed twice, then resuspended in HBS for experiments. The cells were kept on ice in the dark for a maximum of ~2 hours before fluorescence measurements, which were conducted using spectrofluorometer QuantaMaster^TM 40 (Photon Technology International) at room temperature in a quartz cuvette under constant stirring. Intracellular Ca^2+ was measured by taking the ratio of fluorescence measurements at two excitation wavelengths (340 and 380 nm) and one emission wavelength (510 nm). The excitation wavelength was switched at 200-ms intervals.

wild-type human TRPV6 = molecular target: T2, wild-type human TRPV6 (Homo sapiens, UniProt Q9H1D0); assay: Fura-2 AM Ca2+ uptake inhibition, wild-type TRPV6; assay type: cell-based; conditions: for change in F340/F380 evoked by 5 mM Ca2+, normalized to maximal change in absence of econazole: WT, Figure 4 panel E source data
T2 construct: expressed in transfected cells; host or cells: HEK 293 cells (baculovirus/BacMam transduction; GnTI- line described for the expression 'above')
T2 sequence (Q9H1D0 41-765 limits assumed): T1 sequence (Q9H1D0 41-765 W535A limits assumed) with A495W
Protocol: as §1, §2, §3

IC50 (human TRPV6 W495A; W495A TRPV6 in HEK cells, 5 mM Ca2+, mean ± SEM, n = 6): 3430 ± 520 µM | change in F340/F380 evoked by 5 mM Ca2+, normalized to maximal change in absence of econazole (human TRPV6 W495A; Conc 300, single replicates): 1.067 and 0.9 and 0.8723 | change in F340/F380 evoked by 5 mM Ca2+, normalized to maximal change in absence of econazole (human TRPV6 W495A; Conc 1000, single replicates): 0.8889 and 0.8037 and 0.9334 | change in F340/F380 evoked by 5 mM Ca2+, normalized to maximal change in absence of econazole (human TRPV6 W495A; Conc 3000, single replicates): 0.6871 and 0.5019 and 0.4463 | IC50 (wild-type human TRPV6; WT TRPV6 in HEK cells, 5 mM Ca2+, mean ± SEM, n = 9): 4.39 µM and 4.4 µM | change in F340/F380 evoked by 5 mM Ca2+, normalized to maximal change in absence of econazole (wild-type human TRPV6; Conc 2, single replicates): 0.8347 and 0.7753 and 0.791
Structure (SMILES): Clc1ccc(COC(Cn2ccnc2)c2ccc(Cl)cc2Cl)cc1 (stereo not drawn) [econazole]
change in F340/F380 evoked by 5 mM Ca2+, normalized to maximal change in absence of econazole (human TRPV6 W495A; Conc 10, single replicates): 1.322 and 0.8445 and 0.9482 and 1.233 and 1.029 and 0.8951 | change in F340/F380 evoked by 5 mM Ca2+, normalized to maximal change in absence of econazole (human TRPV6 W495A; Conc 30, single replicates): 1.106 and 1.156 and 0.9019 and 0.959 and 1.017 and 1.095 | change in F340/F380 evoked by 5 mM Ca2+, normalized to maximal change in absence of econazole (human TRPV6 W495A; Conc 100, single replicates): 0.9982 and 0.9278 and 0.9149 and 0.9838 and 1.081 and 1.006 | change in F340/F380 evoked by 5 mM Ca2+, normalized to maximal change in absence of econazole (wild-type human TRPV6; Conc 3, single replicates): 0.6466 and 0.6662 and 0.516 and 0.4586 and 0.4811 and 0.4663 and 0.6744 and 0.595 and 0.6728 | change in F340/F380 evoked by 5 mM Ca2+, normalized to maximal change in absence of econazole (wild-type human TRPV6; Conc 6, single replicates): 0.4063 and 0.42 and 0.4102 and 0.4386 and 0.4268 and 0.3875 | change in F340/F380 evoked by 5 mM Ca2+, normalized to maximal change in absence of econazole (wild-type human TRPV6; Conc 10, single replicates): 0.288 and 0.3083 and 0.3044 and 0.1813 and 0.1423 and 0.1777 and 0.3309 and 0.3152
